According to patent US11273217B2, “Cancer treatment composition combining anti-CD26 antibody and other anticancer agent” (Y's AC Co., Ltd., priority 2015, dated 2022):

What was measured:
[1] = test system: H226; assay: In vivo growth of epithelioid mesothelioma cell H226 in SCID mice (tumor weight); conditions: YS110 10 mg/kg, gemcitabine 20 mg/kg, intraperitoneal, days 2 and 4; day 7
Description: H226 (3.8×10^5 cells/animal) was subcutaneously transplanted to the backs of female SCID mice. The day of transplantation was defined as day 0. YS110 (10 mg/kg), gemcitabine (20 mg/kg), or YS110 (10 mg/kg)+gemcitabine (20 mg/kg) was intraperitoneally administered to the mice twice (days 2 and 4) (n=6). At day 7, their tumors were excised, and the tumor weights were measured. Significant difference was tested by two-tailed t-test (vs Cont). The interaction between YS110 and gemcitabine used concomitantly was analyzed by two-way ANOVA.

[2] = test system: H226 cells; assay: MTT cell growth assay, H226; format: cell-based
Description: (§1) Gemcitabine was studied for its effect on the growth of a mesothelioma cell line. A mesothelioma cell line MESO1, JMN, H2452, or H226 (2×10^3 cells/well) was inoculated to a 96-well plate. One hour later, gemcitabine (10^−9, 10^−8, 10^−7, 10^−6, 10^−5, or 10^−4 M) was added thereto (N=6). 2 days later, MTT assay was conducted. Significant difference was tested by two-tailed t-test (vs Cont).
(§2) H226 cells (2×10^3 cells/well) were inoculated to a 96-well plate. One hour later, gemcitabine (0, 10^−8, 3×10^−8, or 10^−7 M) and YS110 (0, 1, 3, or 10 μg/ml) were added thereto in combination. At day 2, MTT assay was conducted. Significant difference was tested by two-tailed t-test (vs Cont). Next, interaction in concomitant use of medications was studied (n=6). The interaction between YS110 and gemcitabine used concomitantly was analyzed by two-way ANOVA.
(§3) MESO1, JMN, H2452 or H226 cells (2×10^3 cells/well were inoculated to a 96-well plate. One hour later, 3×10^−8 M or 10^−7 M gemcitabine was added thereto by concomitant use with the combination of cisplatin (0, 0.1, 0.3, or 1 μM) and pemetrexed (0, 0.03, 0.1, or 0.3 μM) (n=6). At day 2, MTT assay was conducted.
(§4) The growth inhibitory effect of gemcitabine (10^−9 to 10^−4 M) was compared using MESO1, H2452, JMN, and H226 cell lines.

[3] = test system: JMN cells; assay: In vivo JMN cell growth in SCID mice (tumor weight); conditions: YS110 10 mg/kg, gemcitabine 10 mg/kg, intraperitoneal, days 2 and 4; day 7
[4] = test system: H2452 cells; assay: MTT cell growth assay, H2452; format: cell-based; conditions: 3×10^−8 M or 10^−7 M gemcitabine with cisplatin 0-1 μM and pemetrexed 0-0.3 μM; day 2
Description: (§5) MESO1 or H2452 cells (2×10^3 cells/well) were inoculated to a 96-well plate. One hour later, cisplatin or pemetrexed was added thereto at 10^−9, 10^−8, 10^−7, 10^−6, 10^−5, or 10^−4 M (n=6). At day 2, MTT assay was conducted.
H2452 cells (2×10^3 cells/well) were inoculated to a 96-well plate. One hour later, the combination of 0.03, 0.3, or 1 μM cisplatin and 0.1, 3, or 10 μg/ml YS110, or the combination of 0.01, 0.1, or 0.3 μM pemetrexed and 0.1, 3, or 10 μg/ml YS110 was added thereto (n=6). At day 2, MTT assay was conducted. Significant difference was tested by two-tailed t-test (vs Cont).
(§6) MESO1 cells (2×10^3 cells/well) or H2452 cells (2×10^3 cells/well) were inoculated to a 96-well plate. One hour later, 0.3 μM cisplatin-0.1 μM pemetrexed combination, or YS110 (10 μg/ml) plus the 0.3 μM cisplatin-0.1 μM pemetrexed combination was added thereto (n=6). At day 2, MTT assay was conducted. Significant difference was tested by two-tailed t-test (vs Cont).
as §1
as §2, with “H2452” for “H226”
as §3, §4

[5] = test system: MESO1 cells; assay: MTT cell growth assay, MESO1; format: cell-based; conditions: 3×10^−8 M or 10^−7 M gemcitabine with cisplatin 0-1 μM and pemetrexed 0-0.3 μM; day 2
Description: as §5
MESO1 cells (2×10^3 cells/well) were inoculated to a 96-well plate. One hour later, the combination of 0.3, 3, or 10 μM cisplatin and 0.1, 3, or 10 μg/ml YS110, or the combination of 0.03, 0.3, or 1 μM pemetrexed and 0.1, 3, or 10 μg/ml YS110 was added thereto. At day 2, MTT assay was conducted. Significant difference was tested by two-tailed t-test (vs Cont).
as §6, §1
as §2, with “MESO1” for “H226”
as §3
(§7) The growth inhibitory effects of cisplatin (10^−9 to 10^−4 M) and pemetrexed (10^−9 to 10^−4 M) were compared using the MESO1 and JMN cell lines.
as §4

[6] = test system: JMN cells; assay: MTT cell growth assay, JMN; format: cell-based
Description: as §1
as §2, with “JMN” for “H226”, “3×10^−10, 10^−9,” for “10^−8, 3×10^−8,”, “3×10^−8” for “10^−7”
as §3, §7, §4

[7] = 3×10^−8 M or 10^−7 M gemcitabine with cisplatin 0-1 μM and pemetrexed 0-0.3 μM, day 2

## Nc1ccn([C@@H]2O[C@H](CO)[C@@H](O)C2(F)F)c(=O)n1 [gemcitabine]
[1]
  inhibitory effect (tumor weight): 29%
[2]; [7]
  effect of gemcitabine on the growth inhibitory action of cisplatin-pemetrexed: did not potentiate
[2]; 10^−9 to 10^−4 M, 2 days
  cell growth, gemcitabine dose-response compared among mesothelioma cell lines (in words): more strongly suppressed the growth
[2]; H2452 (CD9+) vs H226 (CD9−), 10^−9 to 10^−4 M
  growth inhibitory effect compared between H2452 and H226: significantly stronger growth inhibitory effect on H226 than on H2452
[3]
  inhibitory effect (tumor weight): 29%
[4]
  effect of gemcitabine on the growth inhibitory action of cisplatin-pemetrexed: did not potentiate
[5]
  effect of gemcitabine on the growth inhibitory action of cisplatin-pemetrexed: did not potentiate
[6]; [7]
  effect of gemcitabine on the growth inhibitory action of cisplatin-pemetrexed: did not potentiate
[6]; 10^−9 to 10^−4 M, 2 days
  cell growth, gemcitabine dose-response compared among mesothelioma cell lines (in words): more strongly suppressed the growth
[6]; MESO1 (CD9+) vs JMN (CD9−), 10^−9 to 10^−4 M
  growth inhibitory effect compared between MESO1 and JMN: significantly stronger growth inhibitory effect on JMN than on MESO1
